Measurements from the supplement of paper PMC13380429.

What was measured:
Settings in all cases: 72 h
[1] = system: U2OS; assay: cell viability relative to DMSO; higher = less toxic
[2] = system: Caco-2; assay: as above
[3] = system: HepG2; assay: as above
[4] = system: Calu-3; assay: as above
[5] = system: Vero E6; assay: as above
[6] = system: U2OS; assay: drug sensitivity score (DSS) for viability; higher = more toxic; extreme values may be limits of the assay
[7] = system: Caco-2; assay: as above
[8] = system: HepG2; assay: as above
[9] = system: Calu-3; assay: as above
[10] = system: Vero E6; assay: as above
[11] = system: U2OS; assay: relative viability EC50 (midpoint between 100% and the lowest measured viability); higher = less toxic
[12] = system: Caco-2; assay: as above
[13] = system: HepG2; assay: as above
[14] = system: Calu-3; assay: as above
[15] = system: Vero E6; assay: as above

Row | SMILES | cell viability ([1]; 1 nM) | cell viability ([1]; 10 nM) | cell viability ([1]; 100 nM) | cell viability ([1]; 1000 nM) | cell viability ([1]; 10000 nM) | cell viability ([2]; 1 nM) | cell viability ([2]; 10 nM) | cell viability ([2]; 100 nM) | cell viability ([2]; 1000 nM) | cell viability ([2]; 10000 nM) | cell viability ([3]; 1 nM) | cell viability ([3]; 10 nM) | cell viability ([3]; 100 nM) | cell viability ([3]; 1000 nM) | cell viability ([3]; 10000 nM) | cell viability ([4]; 1 nM) | cell viability ([4]; 10 nM) | cell viability ([4]; 100 nM) | cell viability ([4]; 1000 nM) | cell viability ([4]; 10000 nM) | cell viability ([5]; 1 nM) | cell viability ([5]; 10 nM) | cell viability ([5]; 100 nM) | cell viability ([5]; 1000 nM) | cell viability ([5]; 10000 nM) | drug sensitivity score [6] | drug sensitivity score [7] | drug sensitivity score [8] | drug sensitivity score [9] | drug sensitivity score [10] | relative viability EC50 [11] | relative viability EC50 [12] | relative viability EC50 [13] | relative viability EC50 [14] | relative viability EC50 [15]
1 | O=C(O)[C@H]1CN(C/C=C/P(=O)(O)O)CCN1 [midafotel] | 96.3% | 104% | 99% | 103% | 106% | 102% | 101% | 97.4% | 102% | 98.3% | 97.5% | 94% | 104% | 93.1% | 107% | 97.6% | 94.8% | 105% | 111% | 97.4% | 95.5% | 93.9% | 95.6% | 91.9% | 106% | 0 | 0 | 0 | 0 | 0 | > 10 µM | > 10 µM | > 10 µM | > 10 µM | > 10 µM
2 | CC(=O)O[C@H]1C[C@@H]2CC[C@@H]3[C@H](CC[C@@]4(C)[C@H]3C[C@H](N3CC[N+](C)(C)CC3)[C@@H]4OC(C)=O)[C@@]2(C)C[C@@H]1N1CC[N+](C)(C)CC1 [pipecuronium] | 101% | 104% | 97.7% | 105% | 96.9% | 93.7% | 103% | 91.2% | 96.7% | 97% | 97.8% | 94.2% | 97.4% | 96.8% | 92.3% | 87.8% | 102% | 90.2% | 111% | 96.7% | 100% | 94.7% | 92.5% | 95.5% | 99.2% | 0 | 0 | 0 | 0 | 0 | > 10 µM | > 10 µM | > 10 µM | > 10 µM | > 10 µM
3 | Cc1cc(C(=O)Nc2cc(Oc3ccc4nc(NC(=O)C5CC5)cn4n3)ccc2C)n(C)n1 [TAK-593] | 101% | 103% | 98.4% | 95.1% | 94.1% | 98.4% | 99% | 93.2% | 97.6% | 80.5% | 99.1% | 95.5% | 93.1% | 104% | 75.4% | 94.6% | 102% | 97.6% | 101% | 98.3% | 99.6% | 101% | 96.3% | 95.4% | 91.1% | 0 | 0.9 | 0.7 | 0 | 0 | > 10 µM | > 10 µM | > 10 µM | > 10 µM | > 10 µM
4 | [O-][n+]1cccc(CO)c1 [mepiroxol] | 100% | 99.2% | 104% | 99.2% | 99.2% | 97.3% | 95.1% | 94.3% | 104% | 103% | 90.9% | 118% | 104% | 96.3% | 97% | 103% | 112% | 99.4% | 109% | 104% | 92.1% | 97.9% | 89.3% | 98.9% | 108% | 0 | 0 | 0 | 0 | 0 | > 10 µM | > 10 µM | > 10 µM | > 10 µM | > 10 µM
5 | CC[N+](C)(CC)CCC[n+]1c(-c2ccccc2)c2cc(N)ccc2c2ccc(N)cc21 [propidium-iodide] | 99.2% | 103% | 98.4% | 99.8% | 83.7% | 91.3% | 99.2% | 93.1% | 95.3% | 75.7% | 93.8% | 104% | 90.8% | 90.4% | 80.1% | 100% | 99.6% | 102% | 104% | 92.3% | 96.8% | 99.5% | 98.3% | 96% | 95.7% | 0.3 | 1.5 | 1.2 | 0 | 0 | > 10 µM | > 10 µM | > 10 µM | > 10 µM | > 10 µM
6 | NC(CO)C(=O)NNCc1ccc(O)c(O)c1O (stereo not given) [benserazide] | 96.8% | 101% | 93% | 99.8% | 94% | 95.7% | 99% | 81.6% | 97.8% | 87.9% | 80.5% | 97.4% | 104% | 85% | 94.5% | 88.9% | 89.8% | 95.7% | 96.2% | 92.2% | 115% | 99.8% | 106% | 97% | 106% | 0 | 0 | 0 | 0 | 0 | > 10 µM | > 10 µM | > 10 µM | > 10 µM | > 10 µM
7 | CC(C)NC(=O)c1ccc(C#Cc2ccncc2)cn1 | 95.1% | 98.3% | 97.1% | 104% | 102% | 101% | 90.3% | 99.1% | 92.4% | 95.4% | 104% | 102% | 98.1% | 96.7% | 98.1% | 90.1% | 95.8% | 99.9% | 99% | 114% | 100% | 96.1% | 92.2% | 94.5% | 101% | 0 | 0 | 0 | 0 | 0 | > 10 µM | > 10 µM | > 10 µM | > 10 µM | > 10 µM
